# Experimental data from patent publication US8124793B2, “Derivatives of ethylene methanedisulfonate as cancer chemotherapeutic agents” (priority 2007, dated 2012).
# Columns and labels:
# EKVX = experiment: NCI screen, growth of human tumor cells: Non-Small Cell Lung EKVX; assay type: cell-based; conditions: EKVX (Non-Small Cell Lung), 10^−4 molar
# Method in brief: (§1)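 Percent-growth read-out from the NCI cancer cell screen; data annotated by cancer type and molar concentration, ≥60 points per compound.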
# NCI-H522 = experiment: NCI screen, growth of human tumor cells: Non-Small Cell Lung NCI-H522; assay type: cell-based; conditions: NCI-H522 (Non-Small Cell Lung), 10^−4 molar
# Method in brief: as §1
# NCI-H460 = experiment: NCI screen, growth of human tumor cells: Non-Small Cell Lung NCI-H460; assay type: cell-based; conditions: NCI-H460 (Non-Small Cell Lung), 10^−4 molar
# Method in brief: as §1
# NCI-H23 = experiment: NCI screen, growth of human tumor cells: Non-Small Cell Lung NCI-H23; assay type: cell-based; conditions: NCI-H23 (Non-Small Cell Lung), 10^−4 molar
# Method in brief: as §1
# HCC-2998 = experiment: NCI screen, growth of human tumor cells: HCC-2998 (listed under Non-Small Cell Lung); assay type: cell-based; conditions: HCC-2998 (under Non-Small Cell Lung), 10^−4 molar
# Method in brief: as §1
# HCT-116 = experiment: NCI screen, growth of human tumor cells: Colon Cancer HCT-116; assay type: cell-based; conditions: HCT-116 (Colon Cancer), 10^−4 molar
# Method in brief: as §1
# HCT-15 = experiment: NCI screen, growth of human tumor cells: Colon Cancer HCT-15; assay type: cell-based; conditions: HCT-15 (Colon Cancer), 10^−4 molar
# Method in brief: as §1
# HT29 = experiment: NCI screen, growth of human tumor cells: Colon Cancer HT29; assay type: cell-based; conditions: HT-29, 10^−4 molar
# Method in brief: as §1
# KM12 = experiment: NCI screen, growth of human tumor cells: Colon Cancer KM12; assay type: cell-based; conditions: KM12 (Colon Cancer), 10^−4 molar
# Method in brief: as §1
# SF-268 = experiment: NCI screen, growth of human tumor cells: CNS Cancer SF-268; assay type: cell-based; conditions: SF-268 (CNS Cancer), 10^−4 molar
# Method in brief: as §1
# SF-295 = experiment: NCI screen, growth of human tumor cells: CNS Cancer SF-295; assay type: cell-based; conditions: SF-295 (CNS Cancer), 10^−4 molar
# Method in brief: as §1
# SF-539 = experiment: NCI screen, growth of human tumor cells: CNS Cancer SF-539; assay type: cell-based; conditions: SF-539 (CNS Cancer), 10^−4 molar
# Method in brief: as §1
# U-251 = experiment: NCI screen, growth of human tumor cells: CNS Cancer U-251; assay type: cell-based; conditions: U-251 (CNS Cancer), 10^−4 molar
# Method in brief: as §1
# LOXIMVI = experiment: NCI screen, growth of human tumor cells: Melanoma LOXIMVI; assay type: cell-based; conditions: LOXIMVI (Melanoma), 10^−4 molar
# Method in brief: as §1
# M14 = experiment: NCI screen, growth of human tumor cells: Melanoma M14; assay type: cell-based; conditions: M14 (Melanoma), 10^−4 molar
# Method in brief: as §1
# MALME-3M = experiment: NCI screen, growth of human tumor cells: Melanoma MALME-3M; assay type: cell-based; conditions: MALME-3M (Melanoma), 10^−4 molar
# Method in brief: as §1
# SK-MEL-2 = experiment: NCI screen, growth of human tumor cells: Melanoma SK-MEL-2; assay type: cell-based; conditions: SK-MEL-2 (Melanoma), 10^−4 molar
# Method in brief: as §1
# SK-MEL-5 = experiment: NCI screen, growth of human tumor cells: Melanoma SK-MEL-5; assay type: cell-based; conditions: SK-MEL-5 (Melanoma), 10^−4 molar
# Method in brief: as §1
# UACC-257 = experiment: NCI screen, growth of human tumor cells: Melanoma UACC-257; assay type: cell-based; conditions: UACC-257 (Melanoma), 10^−4 molar
# Method in brief: as §1
# UACC-62 = experiment: NCI screen, growth of human tumor cells: Melanoma UACC-62; assay type: cell-based; conditions: UACC-62 (Melanoma), 10^−4 molar
# Method in brief: as §1
# IGROVI = experiment: NCI screen, growth of human tumor cells: Ovarian Cancer IGROVI; assay type: cell-based; conditions: IGROVI (Ovarian Cancer), 10^−4 molar
# Method in brief: as §1
# OVCAR-3 = experiment: NCI screen, growth of human tumor cells: Ovarian Cancer OVCAR-3; assay type: cell-based; conditions: OVCAR-3 (Ovarian Cancer), 10^−4 molar
# Method in brief: as §1
# OVCAR-4 = experiment: NCI screen, growth of human tumor cells: Ovarian Cancer OVCAR-4; assay type: cell-based; conditions: OVCAR-4 (Ovarian Cancer), 10^−4 molar
# Method in brief: as §1
# OVCAR-8 = experiment: NCI screen, growth of human tumor cells: Ovarian Cancer OVCAR-8; assay type: cell-based; conditions: OVCAR-8 (Ovarian Cancer), 10^−4 molar
# Method in brief: as §1
# SN12C = experiment: NCI screen, growth of human tumor cells: Renal Cancer SN12C; assay type: cell-based; conditions: SN12C (Renal Cancer), 10^−4 molar
# Method in brief: as §1
# DU-145 = experiment: NCI screen, growth of human tumor cells: Prostate Cancer DU-145; assay type: cell-based; conditions: DU-145 (Prostate Cancer), 10^−4 molar
# Method in brief: as §1
# MCF 7 = experiment: NCI screen, growth of human tumor cells: Breast Cancer MCF 7; assay type: cell-based; conditions: MCF 7 (Breast Cancer), 10^−4 molar
# Method in brief: as §1
# MCF7/ADR-RES = experiment: NCI screen, growth of human tumor cells: Breast Cancer MCF7/ADR-RES; assay type: cell-based; conditions: MCF7/ADR-RES (Breast Cancer), 10^−4 molar
# Method in brief: as §1
# MDA-MB-231/ATCC = experiment: NCI screen, growth of human tumor cells: Breast Cancer MDA-MB-231/ATCC; assay type: cell-based; conditions: MDA-MB-231/ATCC (Breast Cancer), 10^−4 molar
# Method in brief: as §1
# MDA-MB-435 = experiment: NCI screen, growth of human tumor cells: Breast Cancer MDA-MB-435; assay type: cell-based; conditions: MDA-MB-435 (Breast Cancer), 10^−4 molar
# Method in brief: as §1
# MDA-N = experiment: NCI screen, growth of human tumor cells: Breast Cancer MDA-N; assay type: cell-based; conditions: 10^−4 molar
# Procedure: (§2) In the NCI screening process, each compound was tested and described by a minimum of 60 data points. The test data include, but are not limited to the type of cancer, the molar concentration used in the screen, and the percent growth of the cancer. In some cases, NMR and elemental analysis were used for structural assignment.
# human cancer cells = experiment: NCI screen summary over the cancers tested (negative growth of human cancer cells); assay type: cell-based; conditions: 10^−4 M conc.; cancers with negative growth / cancers tested
# Procedure: as §2
# The derivatives in the tables are grouped using the same category as in the tables 1-6.
# [1] = Water solubility noted at isolation; assay type: physicochemical; conditions: observation on the isolated product
# Procedure: To a solution of 0.8 g of ethylene bromomethanedisulfonate (91-5) in 50 mL of glyme with 0.2 g of NaH was added followed by 0.6 g of the anhydride of 1,2-ethanedisulfonic acid. After 24 hrs, the solvent was removed and the residue taken up in 10 mL of acetone to give 0.5 g of water soluble 96-13.
# To a solution of 0.58 g of ethylene methanedisulfonate in 50 mL of glyme and 0.2 g of NaH was added 0.65 g of 8-quinolinesulfonyl chloride. After 3 hrs., the solution was filtered, and the solid was washed with CH2Cl2 and dried overnight to give 1.155 g of a mixture of NaCl, Na2CO3, and product. A sample was H2O soluble and the calculated yield, based on assumption of the NaCl and Na2CO3, was 0.848 g (71%) of 97-4.
structure (smiles),measurement,setting,value
"O=S1(=O)OCCOS(=O)(=O)C1c1cccc2cccnc12 [NSC 698122, ethylene 8-quinolylmethanedisulfonate]",percent of growth of human tumor cells,EKVX,28%
same,percent of growth of human tumor cells,NCI-H522,−40%
same,percent of growth of human tumor cells,NCI-H460,−40%
same,percent of growth of human tumor cells,NCI-H23,27%
same,percent of growth of human tumor cells,HCC-2998,−12%
same,percent of growth of human tumor cells,HCT-116,16%
same,percent of growth of human tumor cells,HCT-15,18%
same,% Growth,HT29,−64%
same,percent of growth of human tumor cells,KM12,7%
same,percent of growth of human tumor cells,SF-268,24%
same,percent of growth of human tumor cells,SF-295,18%
same,percent of growth of human tumor cells,SF-539,30%
same,percent of growth of human tumor cells,U-251,−53%
same,percent of growth of human tumor cells,LOXIMVI,−43%
same,percent of growth of human tumor cells,M14,10%
same,percent of growth of human tumor cells,MALME-3M,29%
same,percent of growth of human tumor cells,SK-MEL-2,24%
same,percent of growth of human tumor cells,SK-MEL-5,15%
same,percent of growth of human tumor cells,UACC-257,13%
same,percent of growth of human tumor cells,UACC-62,−46%
same,percent of growth of human tumor cells,IGROVI,17%
same,percent of growth of human tumor cells,OVCAR-3,25%
same,percent of growth of human tumor cells,OVCAR-4,30%
same,percent of growth of human tumor cells,OVCAR-8,19%
same,percent of growth of human tumor cells,SN12C,28%
same,percent of growth of human tumor cells,DU-145,2%
same,percent of growth of human tumor cells,MCF 7,12%
same,percent of growth of human tumor cells,MCF7/ADR-RES,−5%
same,percent of growth of human tumor cells,MDA-MB-231/ATCC,26%
same,percent of growth of human tumor cells,MDA-MB-435,19%
same,percent of growth of human tumor cells,MDA-N,10%
same,Percentage of cancers showing negative growth cancers tested,human cancer cells,10^−4 M conc. = 8/31 = 25.8%
same,water solubility,[1],H2O soluble
